Results: patent publication US10722484B2, “Methods of cancer treatment” (K-Gen, Inc., priority 2016, dated 2020)
“Also recorded” adds a separate entry of the source.

Test system: A549 lung cancer cell line
Experiment: Combination viability/proliferation assays (384-well IC50 ratio, 96-well MacSynergy II)
Format: cell-based
Conditions: for Combination in A549: K101A (synergism/antagonism): agent assayed in combination with K101A; for Combination in A549: K101A (synergism/antagonism) / Combination in A549: K102 (synergism/antagonism): * 2-3 concentrations, # full concentration ranges; for Combination in A549: K102 (synergism/antagonism): agent assayed in combination with K102; for effect in combination with the PKC activator compounds in inhibiting the growth of A549 cells: PKC activator compounds (K101A, K101E, K102); for Combination in A549: K101A (synergism/antagonism) / Combination in A549: K102 (synergism/antagonism) / Ratio ([…] DMSO IC50/combination IC50) / concentration range in which the antagonistic effect was detected / Combination in A549: K101E (synergism/antagonism): A549; for Ratio ([…] DMSO IC50/combination IC50): NC: no change; for concentration range in which the antagonistic effect was detected: with PKC activator compounds (FIG. 10A, 10B), trametinib full range tested, erlotinib lower half of range tested; for Combination in A549: K101E (synergism/antagonism): agent assayed in combination with K101E
Protocol: A 96-well MacSynergy II format for combination test was also used. […] The analysis was done with the SQRT(Data) scale and the four parameter Hill curve was fitted using XLfit5.1 (the MacSynergy II Excel Spreadsheet) for the inhibition data. Synergy (positive number) or Antagonism (negative number) volumes were calculated. […] Three-dimensional MacSynergy II graphs were generated where positive values indicated synergism and negative values indicated antagonism.

[1] = in combination with 0.0002 μM K102
[2] = in combination with 0.002 μM K102
[3] = in combination with 0.005 μM K101A
[4] = in combination with 0.02 μM K102
[5] = in combination with 0.05 μM K101A
[6] = in combination with 0.5 μM K101A, ratio >2 synergistic, <0.5 antagonistic

Compound	effect in combination with K101A or K102 in inhibiting the growth of A549 cells	Combination in A549: K101A (synergism/antagonism)	Combination in A549: K102 (synergism/antagonism)	effect in combination with the PKC activator compounds in inhibiting the growth of A549 cells	Ratio ([…] DMSO IC50/combination IC50) [1]	Ratio ([…] DMSO IC50/combination IC50) [2]	Ratio ([…] DMSO IC50/combination IC50) [3]	Ratio ([…] DMSO IC50/combination IC50) [4]	Ratio ([…] DMSO IC50/combination IC50) [5]	Ratio ([…] DMSO IC50/combination IC50) [6]	concentration range in which the antagonistic effect was detected	Combination in A549: K101E (synergism/antagonism)	Ratio ([…] DMSO IC50/combination IC50) (in combination with […] K101E)
O=C1[O][Pt]2([NH][C@@H]3CCCC[C@H]3[NH]2)[O]C1=O [Oxaliplatin]	synergy	–	–	–	–	–	–	–	–	–	–	–	–
Cc1cc(-c2ncc(CC(=O)Nc3ccc(-c4cnccn4)cn3)cc2C)ccn1 [LGK-974, 2-[5-methyl-6-(2-methylpyridin-4-yl)pyridin-3-yl]-N-(5-pyrazin-2-ylpyridin-2-yl)acetamide]	–	Synergism (minor)	Synergism (minor)	–	–	–	–	–	–	–	–	–	–
CS(=O)(=O)CCNCc1ccc(-c2ccc3ncnc(Nc4ccc(OCc5cccc(F)c5)c(Cl)c4)c3c2)o1 [Lapatinib]	–	–	–	no or insignificant antagonistic effect; also recorded: insignificant synergism or antagonism	–	–	–	–	–	–	–	–	–
CC(=O)Nc1cccc(-n2c(=O)n(C3CC3)c(=O)c3c(Nc4ccc(I)cc4F)n(C)c(=O)c(C)c32)c1 [Trametinib]	–	–	–	–	0.72	0.80	1.36	0.44	1.10	0.50	0.003 to 0.2 µM	–	–
CC(C)C[C@H](NC(=O)[C@H](CCc1ccccc1)NC(=O)CN1CCOCC1)C(=O)N[C@@H](Cc1ccccc1)C(=O)N[C@@H](CC(C)C)C(=O)[C@@]1(C)CO1 [Carfilzomib]	–	None	None	insignificant synergism or antagonism	–	–	–	–	–	–	–	–	–
Nc1ccn([C@@H]2O[C@H](CO)[C@@H](O)C2(F)F)c(=O)n1 [Gemcitabine]	–	None	None	insignificant synergism or antagonism	0.72	0.76	0.80	0.69	0.91	0.97	–	None	–
Nc1cc(C(F)(F)F)c(-c2cc(N3CCOCC3)nc(N3CCOCC3)n2)cn1 [BKM-120, 5-[2,6-Di(4-morpholinyl)-4-pyrimidinyl]-4-(trifluoromethyl)-2-pyridinamine]	–	Synergism (strong)	Synergism (moderate)	strong synergy	0.86	1.24	0.94	2.36	1.21	2.43	–	None	–
C#Cc1cccc(Nc2ncnc3cc(OCCOC)c(OCCOC)cc23)c1 [Erlotinib]	–	–	–	Moderate antagonistic effect	–	–	–	–	–	–	0.3 to 2.5 µM	–	–
CO[C@H]1C[C@@H]2CC[C@@H](C)[C@@](O)(O2)C(=O)C(=O)N2CCCC[C@H]2C(=O)O[C@H]([C@H](C)C[C@@H]2CC[C@@H](OCCO)[C@H](OC)C2)CC(=O)[C@H](C)/C=C(\C)[C@@H](O)[C@@H](OC)C(=O)[C@H](C)C[C@H](C)/C=C/C=C/C=C/1C [Everolimus]	–	Synergism	Synergism	strong synergy	–	>2	–	>2	>2	>2	–	Synergism.	>2
CN[C@@H]1C[C@H]2O[C@@](C)([C@@H]1OC)n1c3ccccc3c3c4c(c5c6ccccc6n2c5c31)C(=O)NC4 [STS, staurosporine]	–	Synergism	Synergism	synergistic effects	–	–	–	–	–	–	–	Synergism	–
